Measured values reported in patent publication US12060360B2, “Lysyl oxidase inhibitors” (The Institute of Cancer Research: Royal Cancer Hospital, priority 2017, dated 2024).

How the values were obtained:
[1] = test system: MMTV-PyMT breast transgenic model lung metastases; test: MMTV-PyMT transgenic mouse breast cancer model, lung metastases quantification T/C; assay type: in vivo; settings: 200 mg/kg po qd, treated/vehicle control, p<0.05
Description: (§1) MMTV-PyMT (Guy et al, 1992) (FVB) female mice were randomized by non-statistical methods to LOX inhibitor treatment groups from day 70 post-birth, when animals had no detectable tumour. Mice were treated daily by oral gavage with LOX inhibitor in vehicle, or daily vehicle (5% DMSO/2.5% Tween20 in water) by oral gavage. Tumour size was determined unblinded by caliper measurements of tumour length, width and depth and volume was calculated as 0.5236×length×width×depth (mm). In all experiments, mice were humanely killed and mammary tumours and lungs were collected when the primary tumours reached ethical limits or signs of ill health.
For lung metastases quantification, all mouse tissue samples were fixed in 10% formalin (Sigma) and embedded in paraffin. Samples were sectioned and hematoxylin and eosin (H&E) stained. Samples were imaged with a Leica CN400 slide scanner. Lung metastases were manually selected using Pen tool in ImageScope. Lung metastases number was counted and area was measured using ImageScope. The investigator was blinded to the experimental groups. The ratio of average metastases surface between compound treated and vehicle control treated (TIC) is calculated. The ratio of average metastases numbers between compound treated and vehicle control treated (T/C) is also calculated. Reduction in metastases area and/or in metastatses number in the compound treated group compared to vehicle-treated control group results in T/C<1. The antimetastatic efficacy of LOX inhibitors described in this invention, as measured by T/C in a model of breast cancer metastasising to lungs is shown in Table 2 and is significant (p<0.05) for all the data presented.

LOX = target: T1, LOX (Mus musculus, UniProt P28301); test: LOX activity in cysts assay (LOX-roGFP2 biosensor, MDCK cysts); assay type: cell-based; settings: MDCK cysts, roGFP2 ratio at basal surface; read-out: LOX biosensor IC50 (cyst)
T1 construct: Full length LOX cDNA was then PCR cloned into pEGFP-N1 (Clonetech), or biosensor vector proGFP2-N1; expressed in transfected cells; host or cells: MDCK cells grown as cysts on Matrigel, G418-selected
T1 sequence (P28301 163-411): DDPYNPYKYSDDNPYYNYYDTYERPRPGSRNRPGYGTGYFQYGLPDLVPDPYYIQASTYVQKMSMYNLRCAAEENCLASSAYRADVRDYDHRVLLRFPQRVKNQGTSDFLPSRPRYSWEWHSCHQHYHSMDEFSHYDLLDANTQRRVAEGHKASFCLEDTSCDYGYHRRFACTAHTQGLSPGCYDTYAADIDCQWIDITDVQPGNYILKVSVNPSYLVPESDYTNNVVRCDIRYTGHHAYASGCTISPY
Summary of the method: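 Live MDCK cysts grown 10 days on Matrigel and expressing mouse LOX fused to the roGFP2 redox biosensor, with inhibitors added 30 min before confocal imaging. Oxidised/reduced ratio (405/488 nm excitation, 500–530 nm emission) at the basal cyst surface taken as LOX activity. DMSO defines 0% and 1 mM BAPN 100% inhibition.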

[2] = test system: MMTV-PyMT breast transgenic model primary tumour; test: MMTV-PyMT transgenic mouse breast cancer model, primary tumour T/C; assay type: in vivo; settings: 200 mg/kg po qd; ratio of average tumour volume treated/vehicle control; p<0.05
Description: (§2) All procedures involving animals were approved by the Animal Welfare and Ethical Review Body of the Institute of Cancer Research and Cancer Research UK Manchester Institute in accordance with National Home Office regulations under the Animals (Scientific Procedures) Act 1986 and according to the guidelines of the Committee of the National Cancer Research Institute Tumour size was determined by caliper measurements of tumour length, width and depth and volume was calculated as volume=0.5236×length×width×depth (mm).
as §1
(§3) For therapeutic efficacy assessment, the ratio of average tumour volume between compound treated and vehicle control treated (T/C) is calculated. Reduction in tumour volume in the compound treated group compared to vehicle-treated control group results in T/C<1. The efficacy of LOX inhibitors described in this invention, as measured by T/C in a pancreatic cancer model, a colorectal cancer model and a breast cancer model is shown in Table 2 and is significant (p<0.05) for all the data presented.

[3] = test system: MDA-MB-231 human breast adenocarcinoma; test: MDA-MB-231 xenografts, primary tumour volume T/C; assay type: in vivo; settings: 200 mg/kg po qd, ratio of average tumour volume treated/vehicle control, p<0.05
Description: as §2
MDA-MB-231 xenografts. Ncr nude female mice at 6 weeks old from Charles River were injected into the third upper nipple mammary fat pad with MDA-MB-231 Luc 4×10^6 in 100 ul PB (50:50 Matrigel). When tumours reach a mean of 80 mm^3 around 10 days post cell inoculation the animals are allocated in 4 groups of 8. LOX inhibitor treatment is then administrated by oral gavage dosing, at 0.2 ml/20 g bodyweight once daily for up to 28 consecutive days. Tumours and weights are measured twice weekly using calipers and the animals can be imaged using non invasive method by bioluminescence using IVIS 200 imaging machine, weekly using 150 mg/kg luciferin administrate intraperitoneal or subcutaneous. At the end of the study the animals are culled, and samples taken, fixed or snap frozen in liquid nitrogen. Frozen samples kept at −80 degree centigrade until being analyzed and the fixed samples stained according to desired marker.
as §3

CCOc1ccc(N2C[C@H]3CN(CCCC#N)C[C@@H]2C(C)(C)C3)cc1 [Example 42, 4-((1R,5S)-6-(4-ethoxyphenyl)-9,9-dimethyl-3,6-diazabicyclo[3.2.2]nonan-3-yl)butanenitrile]
T/C MMT-PyMT breast transgenic model - metastases b) Area ([1]; lung metastases area): b) 0.013
T/C MMT-PyMT breast transgenic model - metastases a) Count ([1]; lung metastases number): a) 0.16
IC50 (LOX): < 0.63 µM
T/C MMT-PyMT breast transgenic model - primary tumour [2]: 0.50
response vs control in vivo at 200 mg/kg [3]: 41%
